# Results as given in article PMC11339948 (Chemical Science, 2024).
# Bridge positions count the residues as written; N and C are the ends. Square brackets hold non-standard residues; d marks the D form. Ends that are not written are not given here. pGlu = O=C1CC[C@@H](C(=O)O)N1
# Target: full-length TDP1 (Homo sapiens, UniProt Q9NUW8)
# Assay: FRET-based TDP1 enzymatic activity inhibition assay
# Assay type: biochemical
# Sequence of full-length TDP1 (Q9NUW8 whole entry): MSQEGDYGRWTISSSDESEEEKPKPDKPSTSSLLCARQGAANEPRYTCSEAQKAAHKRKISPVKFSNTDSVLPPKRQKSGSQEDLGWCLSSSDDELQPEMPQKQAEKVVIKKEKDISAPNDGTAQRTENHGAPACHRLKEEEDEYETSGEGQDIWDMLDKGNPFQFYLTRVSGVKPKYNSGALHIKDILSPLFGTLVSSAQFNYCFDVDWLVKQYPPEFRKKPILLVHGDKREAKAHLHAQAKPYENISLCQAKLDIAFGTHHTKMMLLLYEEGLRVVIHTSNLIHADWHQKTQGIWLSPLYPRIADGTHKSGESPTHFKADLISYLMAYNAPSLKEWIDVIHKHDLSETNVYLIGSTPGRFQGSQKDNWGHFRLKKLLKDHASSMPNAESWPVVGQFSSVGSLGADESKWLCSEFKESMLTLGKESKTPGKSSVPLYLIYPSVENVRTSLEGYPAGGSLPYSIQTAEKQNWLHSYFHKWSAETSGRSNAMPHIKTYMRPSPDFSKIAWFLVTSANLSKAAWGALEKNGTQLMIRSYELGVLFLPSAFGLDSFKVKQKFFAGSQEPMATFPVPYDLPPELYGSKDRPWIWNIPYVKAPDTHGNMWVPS
row,Substance,IC50
1,"[pGlu]EAFCYSDRFCQNYIGSIPDCCFGRGSYSFELQPPPWECYQC (disulfide 5-21, 11-39, 22-42) [Native recifin A, recifin A]",800 nM
2,"[pGlu]EAFCYSDRFCQNYIGSIPDCCFGRGSYSFELQPPPWECYQC (disulfide 5-21, 11-39, 22-42) [Synthetic recifin A, recifin A]",580 nM
